# From patent publication US10828269B2, “Reducing muscle atrophy by administering astaxanthin” (FUJI CHEMICAL INDUSTRIES CO., LTD., priority 2004, dated 2020)
# Legend:
# [1] = test system: gastrocnemius of Wistar male rats; experiment: Muscle atrophy test (sciatic nerve of left leg cut); assay type: in vivo, rat
# Procedure: 9-week-old Wistar male rats were bred each being fed a normal diet for breeding and water ad libitum under the conditions with a 12 hours light-dark cycle at a temperature of 21° C. to 25° C. and were accustomed to the environment in advance. The rats were divided into two groups of 10 rats per group, and each group was bred with a normal diet (control group) or a diet to which astaxanthin was added (Ax group) fed ad libitum. The diet to which astaxanthin was added was prepared by mixing free astaxanthin at 0.02%. At one week after the start of ingestion of astaxanthin-added diet, the sciatic nerve of the left leg was cut and muscle of the left lower extremity was inactivated. After breeding for further two weeks, rats were killed, triceps surae (soleus muscle, gastrocnemius, and plantaris) were extracted from left leg (limb in which nerves were removed) and right leg (control limb), respectively, and the wet weight of the gastrocnemius was measured. The atrophy rate was calculated using the difference of the wet weight of the gastrocnemius of left lower limb to the wet weight of the gastrocnemius of right lower limb with respect to each group Table 7. […]
# RT1 class II, locus Ba = experiment: GENEchip mRNA expression in gastrocnemius; assay type: in vivo, rat; conditions: probe 1377334_at
# [2] = test system: ATP-binding cassette, sub-family B (MDR/TAP), member; experiment: GENEchip mRNA expression in gastrocnemius; assay type: in vivo, rat; conditions: probe 1369161_at
# Procedure: (§1) After the period of test breeding, kidney was removed and frozen at −80° C. Using an LM200 system (Olympus Corporation), the renal glomerulus was cut from kidney of mice while keeping low temperature. tRNA of renal glomerulus was extracted using tRNA extraction regent “Isogen” (produced by Nippon Gene Co., Ltd.), and then preparation of cRNA and hybridization were performed according to the Affymetrix GeneChip Eukaryotic Small Sample Target Labeling Assay Ver. II.
# (§2) (1) Synthesis of first strand cDNA: 1 μL of total RNA solution and 1 of 5 μM T7-Oligo(dT) primer were mixed, heated at 70° C. for 6 minutes, and then cooled at 4° C. for 2 minutes. 3 μL of RT_Premix_1 (1.5 μL DEPC-treated water, 4 μL 5× First strand Buffer, 2 μL DTT (0.1 M), 1.5 μL dNTP Mix (10 mM), 1 μL RNase inhibitor (40 U/μL), and 2 μL Super-Script II (200 U/μL)) was added and reverse transcribed at 42° C. for 1 hour. The sample was heated at 70° C. for 10 minutes to inactivate Super Script II, and then cooled to 4° C. (2) Synthesis of second strand cDNA: 32.5 μl of SS_Premix_1 (91 μL DEPC-treated water, 30 μL 5× Second Strand Buffer, 3 μL dNTP (10 mM), 1 μL E. coli DNA ligase (10 U/μL); 4 μL E. coli DNA polymerase (10 U/μL), and 1 μL RNase H (2 U/μL)) was added to the first strand cDNA solution and allowed to react for 2 hours at 16° C. (3) To the resulting cDNA, was added 1 μL T4 DNA polymerase (5 U/μl) and allowed to react for 10 minutes at 16° C., and purified by ethanol precipitation. (4) In vitro transcription: To the dried double-stranded cDNA pellet, was added 10 μL of reagents (4 μL DEPC-treated water, 4 μL premixed NTPs, 1 μL 10× reaction buffer, and 1 μL 10× enzyme mix), and allowed to react at 37° C. in a water bath for 6 hours. (5) First cycle cRNA was purified using the RNeasy Mini Kit in accordance with the protocol in the handbook (QIAGEN). (6) Subsequently, for the amplification and labeling, the cRNA sample was mixed with random primers (0.2 μg/μL), treated at 70° C. for 10 minutes, cooled on ice for 2 minutes, 5 μL of RT_Premix_2 (5× First Strand Buffer, DTT (0.1 M), dNTP mix (10 mM), RNase inhibitor (40 U/μL), and SuperScript II (200 U/μL) was added, and allowed to react at 42° C. for 1 hour. (7) Next, Second Sstrand cDNA synthesis was carried out by adding 5 μM T7-Oligo(dT) promoter treating at 70° C. for 6 minutes, cooling at 4° C., and adding 62 μL of SS_Premix_2 (43 μL it DEPC-treated water, 15 μL 5× Second Strand Buffer, 1.5 μL dNTP mix (10 mM), and 2 μL E. coli DNA polymerase (10 U/μL)). (8) To the resulting cDNA, was treated added 1 μL of T4 DNA polymerase (5 U/μL), allowed to react at 16° C. for 10 minutes, and purified by ethanol precipitation. (9) To perform in vitro transcription and labeling with the ENZO BioArray High Yield RNA Transcript Labeling Kit, 40 μL of reagents (22 μL DEPC-treated solution, 4 μL 10×HY reaction buffer, 4 μL 10× biotin-labeled ribonucleotides, 4 μL 10×DTT, 4 μL 10× RNase to inhibition mix, and 2 μL 20× T7 RNA polymerase) were added, and allowed to react at 37° C. for 4 hours. (10) Labeled cRNA target was purified with RNeasy columns. (11) The fragmentation and hybridization were performed according to “GeneChip Expression Analysis Technical Manual”.
# (§3) The prepared labeled cRNA was hybridized to a GeneChip “mouse Expression Set 430A, representing a total of 22,690 mouse transcripts” (Affymetrix). For data analysis, the GeneChip Analysis Suite Ver. 5.1 (Affymetrix) was used. All microarrays were scaled to a target intensity of 1000 and were compared with background, noise, and overall staining intensity. Differentially expressed transcripts were identified by algorithms of the software y Affymetrix.
# (§4) 9-week-old Wistar male rats were bred each being fed a normal diet for breeding and water ad libitum under the conditions with a 12 hours light-dark cycle at a temperature of 21° C. to 25° C. and were accustomed to the environment in advance. […]
# [3] = test system: very low density lipoprotein receptor; experiment: GENEchip mRNA expression in gastrocnemius; assay type: in vivo, rat; conditions: probe 1369098_at
# Procedure: as §1, §2, §3, §4
# [4] = relative to β-carotene; cited from earlier work
# [5] = Takahashi Jiro et al, Rinsho Iyaku 2004; cited from earlier work
# [6] = denervated left leg gastrocnemius, astaxanthin group vs control group
# [7] = denervated left leg gastrocnemius, astaxanthin-administered group
# [8] = right leg (control) gastrocnemius, astaxanthin group vs control group
# [9] = right leg (control) gastrocnemius, astaxanthin-administered group
smiles,measurement,setting,value
"CC1=C(/C=C/C(C)=C/C=C/C(C)=C/C=C/C=C(C)/C=C/C=C(C)/C=C/C2=C(C)C(=O)C(O)CC2(C)C)C(C)(C)CC(O)C1=O (stereo not drawn) [astaxanthin, 3,3′-dihydroxy-β,β-carotene-4,4′-dione]",Gastrocnemius Atrophy rate,"[1]; difference of wet weight of left to right gastrocnemius, Ax group",37.7%
same,atrophy rate compared with the control group,[1]; risk rate 5% or less,smaller value of atrophy rate
same,gene expression intensity ratio ad/nd,"RT1 class II, locus Ba; [6]",0.51
same,luminescence intensity ad,"RT1 class II, locus Ba; [7]",312
same,gene expression intensity ratio ac/nc,"RT1 class II, locus Ba; [8]",1.60
same,luminescence intensity ac,"RT1 class II, locus Ba; [9]",220.5
same,gene expression intensity ratio ad/nd,[2]; [6],1.41
same,luminescence intensity ad,[2]; [7],306.9
same,gene expression intensity ratio ac/nc,[2]; [8],1.34
same,luminescence intensity ac,[2]; [9],677.1
same,gene expression intensity ratio ad/nd,[3]; [6],1.49
same,luminescence intensity ad,[3]; [7],318
same,gene expression intensity ratio ac/nc,[3]; [8],1.00
same,luminescence intensity ac,[3]; [9],500.5
same,"antioxidant effect, times as strong as β-carotene",[4],about 40 times
same,mutagenicity,[5],has not been observed having any mutagenicity
